Source: US7947706B2, “Substituted pyrrolopyridines, compositions containing them, manufacturing process therefor and use thereof” (Sanofi-Aventis Deutschland GmbH, priority 2005, dated 2011)

Tests used:
Format in all cases: biochemical
TIE2 = target: T1, TIE2 (Homo sapiens, UniProt Q02763); experiment: Tie2 phosphorylation of PLC test (GST-Tie2, FlashPlate); conditions: GST-Tie2 intracellular domain 776-1124, GST-PLC substrate, 33P-ATP, one hour at 37° C.; read-out: IC 50 TIE2
T1 construct: amino acids of the intracellular domain 776-1124; made in house; host or cells: baculovirus expression (pFastBacGT)
Protocol: The coding sequence of human Tie2 corresponding to the amino acids of the intracellular domain 776-1124 was generated by PCR using the cDNA isolated from a human placenta as a model. This sequence was introduced into a pFastBacGT baculovirus expression vector in the form of a GST fusion protein.
The inhibitory effect of the molecules is determined in a test of phosphorylation of PLC with Tie2 in the presence of GST-Tie2 purified to about 80% homogeneity. The substrate is composed of the SH2-SH3 fragments of PLC expressed in the form of a GST fusion protein.
The kinase activity of Tie2 is measured in a MOPS 20 mM pH 7.2 buffer, containing 10 mM MgCl2, 10 mM MnCl2, 1 mM DTT, 10 mM of glycerophosphate. In a 96-well FlashPlate plate maintained on ice, a reaction mixture is deposited, composed of 70 μL of kinase buffer containing 100 ng of enzyme GST-Tie2 per well. Next, 10 μL of the test molecule diluted in DMSO to a maximum concentration of 10% are added. For a given concentration, each measurement is performed four times. The reaction is initiated by adding 20 μl of solution containing 2 μg of GST-PLC, 2 μm of cold ATP and 1 μCi of ^33P[ATP]. After incubation for one hour at 37° C., the reaction is stopped by adding 1 volume (100 μl) of 200 mM EDTA. After removal of the incubation buffer, the wells are washed three times with 300 μL of PBS. The radioactivity is measured on a MicroBeta 1450 Wallac.
The inhibition of the Tie2 activity is calculated and expressed as a percentage of inhibition relative to the control activity determined in the absence of compound.

Aurora A = target: T2, Aurora A (Homo sapiens, UniProt O14965); experiment: Aurora2 (Aurora-A) enzymatic test, NuMA substrate phosphorylation, radioactivity detection; conditions: 10 nM Aurora2, 500 nM NuMA, 1 μM ATP, 30 minutes, 37° C.; read-out: IC 50 Aurora A
T2 construct: Aurora2: whole recombinant protein comprising an N-terminal histidine tail; His (N); made in house; host or cells: E. coli
T2 sequence (O14965 1-403): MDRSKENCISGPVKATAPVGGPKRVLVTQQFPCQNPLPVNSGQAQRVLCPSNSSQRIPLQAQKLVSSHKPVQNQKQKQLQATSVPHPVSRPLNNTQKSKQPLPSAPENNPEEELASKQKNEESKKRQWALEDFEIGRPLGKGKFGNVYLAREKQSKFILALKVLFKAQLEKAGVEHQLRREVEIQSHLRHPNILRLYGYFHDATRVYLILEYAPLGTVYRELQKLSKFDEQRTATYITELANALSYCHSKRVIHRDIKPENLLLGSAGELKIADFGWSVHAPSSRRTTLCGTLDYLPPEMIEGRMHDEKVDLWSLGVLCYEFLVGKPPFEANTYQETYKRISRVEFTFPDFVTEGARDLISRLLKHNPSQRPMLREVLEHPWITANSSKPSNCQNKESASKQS
Protocol: (§1) The inhibitory effect of compounds with respect to the kinases Aurora1 and Aurora2 is determined by means of an enzymatic test using radioactivity detection.
(§2) The kinase activity of Aurora1 and Aurora2 is evaluated via the phosphorylation of the substrate Numa-histidine in the presence of radiolabelled ATP ([^33P]ATP) using 96-well Flashplate plates in which the nickel chelate is bound to the surface of the microplate. The amount of ^33P phosphate incorporated into the NuMA substrate is proportional to the activity of the enzyme Aurora1 or Aurora2.
Aurora2: whole recombinant protein comprising an N-terminal histidine tail, was expressed in E. coli and purified to more than 82%.
(§3) NuMA (nuclear protein that combines with the mitotic apparatus): 424-amino acid fragment, expressed in E. coli, the N-terminal end of which has been labelled with histidine, and used as substrate for the two Aurora enzymes.
(§4) The microplates used are 96-well Flash-Plate plates, nickel chelate (Perkin-Elmer, model SMP107).
(§5) The products to be evaluated are incubated in a reaction volume of 100 μL per well, in the presence of 10 nM of Aurora1 or Aurora2, 500 nM of NuMA substrate in a buffer composed of 50 mM Tris/HCl (pH 7.5), 50 mM NaCl, 5 mM MgCl2 (Aurora-B) or 10 mM MgCl2 (Aurora-A) and 1 mM DTT, at 37° C.
(§6) 80 μL of enzyme/substrate incubation buffer are distributed in each well, followed by 10 μL of product to be evaluated, at variable concentrations. The reaction is initiated by adding 1 μM final of ATP containing 0.2 μCi of [^33P]ATP (10 μL). After incubating for 30 minutes, the reaction is quenched by simple removal of the reaction buffer and each well is washed twice with 300 μl of Tris/HCl buffer. The radioactivity is then measured in each well using a Packard, Top-Count model scintillation machine.
(§7) The control enzymatic activity of Aurora is expressed by the number of counts per minute obtained over 30 minutes after subtracting the background noise (reaction mixture containing no enzyme). The evaluation of the various test products is expressed as a percentage of inhibition of the Aurora activity relative to the control.

Aurora B = target: T3, Aurora B (Homo sapiens, UniProt Q96GD4); experiment: Aurora1 (Aurora-B/INCENP-C3 complex) enzymatic test, NuMA substrate phosphorylation, radioactivity detection; conditions: 10 nM Aurora1 (Aurora-B/INCENP-C3), 500 nM NuMA, 1 μM ATP, 30 minutes, 37° C.; read-out: IC 50 Aurora B
T3 construct: His (N); made in house
Protocol: as §1, §2
Aurora1: Aurora-B/INCENP-C3 recombinant complex, purified to about 50%, the N-terminal end of Aurora-B of which has been labelled with histidine.
as §3, §4, §5, §6, §7

T3 sequence (Q96GD4 whole entry): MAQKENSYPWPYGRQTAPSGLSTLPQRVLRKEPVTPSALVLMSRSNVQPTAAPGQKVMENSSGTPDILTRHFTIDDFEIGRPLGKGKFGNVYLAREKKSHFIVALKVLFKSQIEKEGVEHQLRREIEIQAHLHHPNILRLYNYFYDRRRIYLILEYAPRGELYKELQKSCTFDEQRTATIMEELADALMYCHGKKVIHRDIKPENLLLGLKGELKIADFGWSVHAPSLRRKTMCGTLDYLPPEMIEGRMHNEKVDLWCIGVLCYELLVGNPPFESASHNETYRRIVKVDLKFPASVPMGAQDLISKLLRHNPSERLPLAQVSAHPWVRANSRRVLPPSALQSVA
T3 sequence (Q9NQS7 826-900 partner limits assumed): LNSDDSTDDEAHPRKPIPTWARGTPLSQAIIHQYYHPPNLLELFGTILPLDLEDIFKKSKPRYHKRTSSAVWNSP
T1 sequence (Q02763 776-1124): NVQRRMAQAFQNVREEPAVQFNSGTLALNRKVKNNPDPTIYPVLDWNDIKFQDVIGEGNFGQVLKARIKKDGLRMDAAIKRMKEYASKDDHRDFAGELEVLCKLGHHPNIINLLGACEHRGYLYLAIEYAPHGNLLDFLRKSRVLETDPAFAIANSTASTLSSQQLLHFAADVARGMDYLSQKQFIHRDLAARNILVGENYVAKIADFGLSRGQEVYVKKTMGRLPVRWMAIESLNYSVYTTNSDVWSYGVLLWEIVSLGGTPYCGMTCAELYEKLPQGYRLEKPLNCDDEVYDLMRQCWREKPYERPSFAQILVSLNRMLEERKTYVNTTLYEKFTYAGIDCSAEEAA

SMILES	IC50 (TIE2) [nM]	IC50 (Aurora A) [nM]	IC50 (Aurora B) [nM]
COc1ccc(C)cc1NC(=O)Nc1ccc(-c2c(C(N)=O)[nH]c3cnccc23)cc1 [Example 2, 3-{4-[3-(2-Methoxy-5-methylphenyl)ureido]phenyl}-1H-pyrrolo[2,3-c]pyridine-2-carboxamide]	21	222	196
Cc1ccc(F)c(NC(=O)Nc2ccc(-c3c(C(N)=O)[nH]c4cnccc34)cc2)c1.O=C(O)C(F)(F)F [Example 5, 3-{4-[3-(2-Fluoro-5-methylphenyl)ureido]phenyl}-1H-pyrrolo[2,3-c]pyridine-2-carboxamide trifluoroacetate]	47	131	67
NC(=O)c1[nH]c2ncccc2c1-c1ccc(NC(=O)Nc2cc(C(F)(F)F)ccc2F)cc1 [Example 7, 3-{4-[3-(2-Fluoro-5-trifluoromethylphenyl)ureido]phenyl}-1H-pyrrolo[2,3-b]pyridine-2-carboxamide]	9	553	133
NC(=O)c1[nH]c2cnccc2c1-c1ccc(NC(=O)Nc2cc(C(F)(F)F)ccc2F)cc1 [Example 1, 3-{4-[3-(2-Fluoro-5-trifluoromethylphenyl)ureido]phenyl}-1H-pyrrolo[2,3-c]pyridine-2-carboxamide]	4	172	138
